What was measured:
[1] = system: MMP-13; test: Immunofluorescence staining of MMP-13 in IL-1β stimulated chondrocytes; type: cell-based, rat; settings: pre-incubation before IL-1β 10 ng/mL
Procedure: (§1) Cells were divided into nine groups: (1) Control: chondrocytes treated with SLFNP; (2) IL-1β: chondrocytes treated with 10 ng/mL IL-1β (Gibco, USA) and cultured for 2 days; (3) LiCl+IL-1β: chondrocytes pre-incubated with LiCl for 1 h followed by treatment with 10 ng/mL IL-1β for 2 days; (4) 1 mM SLFNP+IL-1β: chondrocytes pre-incubated with 1 mM SLFNP for 1 h followed by treatment with IL-1β for 2 days; (5) 5 mM SLFNP+IL-1β: chondrocytes pre-incubated with 5 mM SLFNP for 1 h followed by treatment with IL-1β for 2 days; (6) HA+IL-1β: condrocytes pre-incubated with 10 mg/mL HA for 1 h followed by treatment with IL-1β for 2 days; (7) HA+LiCl+IL-1β: chondrocytes pre-incubated with 10 mM LiCl and HA for 1 h followed by treatment with IL-1β for 2 days; (8) HA+1 mM SLFNP+IL-1β: chondrocytes pre-incubated with 1 mM SLFNP and HA for 1 h followed by treatment with IL-1β for 2 days; (9) HA+5 mM SLFNP+IL-1β: chondrocytes pre-incubated with 5 mM SLFNP and HA for 1 h followed by treatment with IL-1β for 2 days.
After 2 days of culture, cells in the different treatment groups were washed twice with PBS, fixed in 4% formalin for 20 min, and permeabilized with 0.3% Triton X-100 (WN) in PBS for 10 min. After blocking with 5% BSA in PBS for 1 hour at room temperature, primary MMP-13 antibodies were added (1:200 dilution, Abcam, USA) and incubated at 4° C. overnight. […]

[2] = system: Sprague-Dawley rats with surgery-induced OA; test: Macroscopic evaluation of cartilage lesions in rat ACLT OA model; type: in vivo
Procedure: In vivo analysis was performed in Sprague-Dawley rats which had undergone bilateral anterior cruciate ligament transection (ACTL) surgery. One month after the surgery, the animals were randomly sorted into six groups (n=24) and were i.a. injected once per week with the following regimens: SLFNP+HA (1.74 μg Li in 50 μL HA), SLFNP alone (1.74 μg Li in 50 μL PBS), LiCl+HA (3.48 μg Li in 50 μL HA), LiCl alone (3.48 μg in 50 μL PBS), HA alone (50 μL), and PBS (50 μL). For control, a sham-operated group was also studied.
Sprague Dawley Rats (SD rats) were obtained from Guangxi Medical University. […]
After 4 and 8 weeks of treatment, SD rats were sacrificed by intraperitoneal overdose of pentobarbital. […] The observers evaluated the depth of lesions of the articular cartilage on a scale of 0-4 (0=normal-appearing surface, 1=minimal fibrillation or a slight yellow discoloration of the surface, 2=erosion extending into the superficial or middle layers only, 3=erosion extending into the deep layers, and 4=erosion extending to the subchondral bone). The surface area of erosion was calculated with a digital caliper and presented them as mm2, with a higher score indicating greater cartilage damage.

[3] = system: MMP3; test: qRT-PCR of MMP3 in IL-1β stimulated chondrocytes; type: cell-based, rat; settings: compared to IL-1β-stimulated cells
Procedure: as §1
(§2) RNA was isolated from chondrocytes in all groups after 2 days of treatment using an RNA isolation kit (Tiangen Biotechnology). […]

[4] = system: IL-1β induced chondrocytes; test: Chondroprotective effect: CCK-8 viability of IL-1β induced chondrocytes; type: cell-based, rat; settings: LiCl 10 mM, IL-1β 10 ng/mL, 48 h
Procedure: The capacity of SLFNP was assessed to protect chondrocytes from deterioration induced by inflammatory cytokines. Chondrocytes were first incubated with SLFNP and then added to the medium 10 ng/mL interleukin-1-beta (IL-1β), a major inflammatory cytokine involved in chronic OA. For comparison, chondrocytes were treated with PBS or LiCl salt (10 mM) before adding IL-1β. In the PBS group, CCK-8 assay found a marked drop of cell viability (37.64% at 48 h). […]

[5] = system: ADAMTS5; test: qRT-PCR of ADAMTS5 in IL-1β stimulated chondrocytes; type: cell-based, rat; settings: compared to IL-1β-stimulated cells
Procedure: as §1, §2

[6] = system: IL-1β induced chondrocytes; test: Live/dead assay of IL-1β induced chondrocytes; type: cell-based, rat; settings: vs PBS group, IL-1β 10 ng/mL
Procedure: as §1
Cells were treated as the same procedures as described above. Live/dead assays were performed using a live/dead viability assay kit (Invitrogen, USA) after 2 days of culture. Briefly, cells were incubated in a solution containing […] of calcein AM and […] of ethidium homodimer-1 for 40 min at room temperature in the dark. […]

[7] = system: IL6; test: qRT-PCR of IL6 in IL-1β stimulated chondrocytes; type: cell-based, rat; settings: compared to IL-1β-stimulated cells
Procedure: as §1, §2

[8] = system: COX-2; test: qRT-PCR of COX-2 in IL-1β stimulated chondrocytes; type: cell-based, rat; settings: compared to IL-1β-stimulated cells
Procedure: as §1, §2

[9] = system: iNOS; test: qRT-PCR of iNOS in IL-1β stimulated chondrocytes; type: cell-based, rat; settings: compared to IL-1β-stimulated cells
Procedure: as §1, §2

[10] = system: Sprague-Dawley rats with surgery-induced OA; test: Histological evaluation (H&E, Safranin O-fast green, OARSI score) in rat ACLT OA model; type: in vivo
Procedure: Sprague Dawley Rats (SD rats) were obtained from Guangxi Medical University. All experiments were conducted in accordance with the guidelines of the Animal Committee and with ethics approval from the Guangxi Medical University Animal Care and Use Committee, China (Protocol Number: 2015-11-27). A total of 152 male SD rats with a weight of 180±20 g were used. After anesthesia, 144 randomly selected rats underwent bilateral anterior cruciate ligament transection (ACLT) on the right knee joints to induce OA. Another 8 rats received sham operations (Sham group), in which the articular cavity was opened and sutured with the short anterior cruciate ligament intact. After surgery, all animals were returned to their cages, with the limbs not immobilized. One month after the surgery, the animals were randomly sorted into […] groups (n=24) and were i.a. injected once per week with the following regimens for 8 weeks: SLFNP+HA (1.74 μg Li in 50 μL 10 mg/mL HA), SLFNP alone (1.74 μg Li in […] PBS), LiCl+HA (3.48 μg Li in 50 μL 10 mg/mL HA), LiCl alone (3.48 μg in 50 μL PBS), HA alone (50 μL), and PBS (50 μL). In the sham groups, no other procedures were conducted. The animals in the six groups were sacrificed at 4 and 8 weeks after therapy (n=12). […]

[11] = cited from earlier work
[12] = in vivo; cited from earlier work

In the case of `[Cl-].[Li+]` [LiCl, lithium chloride], the “MMP13 expression (immunofluorescence)” value [1] is reported as “upregulation was attenuated”, the average lesion area ([2]; Week 4, i.a. once per week) is reported as 8.5 mm2 and the average lesion area ([2]; Week 8, i.a. once per week) is reported as 10.2 mm2. For the same molecule, the “reduction of mRNA level of MMP3” value [3] was 57.45%, the cell viability [4] was 80.77% and the “reduction of mRNA level of ADAMTSS” value [5] was 59.77%. The “positive ethidium homodimer-1 staining” value [6] was “significantly reduced level of positive staining”, the “reduction of mRNA level of IL6” value [7] was 54.94% and the “reduction of mRNA level of COX-2” value [8] was 68.29%. For the same molecule, the “reduction of mRNA level of iNOS” value [9] was 57.66%, the “reduction of OARSI score compared to the PBS control” value ([10]; Week 4) was 19.28% and the “reduction of OARSI score compared to the PBS control” value ([10]; Week 8) was 11.95%.

In the case of `[Li]` [lithium], the “serum lithium toxicity threshold” value [11] is listed as 1.5 mM.

For hyaluronic acid [HA], the “time for i.a. injected HA to fully degrade in the joint” value [12] is given as ~ 60 h.

Reference: patent publication US12708606B2 (UNIVERSITY OF GEORGIA RESEARCH FOUNDATION, INC., priority 2018, dated 2026)
